According to US8592174B2, “Peptidase substrates” (bioMérieux, S.A., priority 2009, dated 2013):
Each block holds one molecule with its values, some of them ahead of it.

How the values were obtained:
Assay type in all cases: cell-based
Candida glabrata 0408083 = assay: Peptidase detection on Columbia medium (Example 5); details: 75 mg/l, 48 h 37° C.
Method: (§1) After homogenization, the media were distributed into Petri dishes 55 mm in diameter. A medium acting as a growth control (Columbia) and denoted C was also poured.
(§2) Twenty-two strains of microorganisms were inoculated with a 10 μl calibrated loop according to the three-quadrant streaking method using bacterial suspensions at 0.5 McFarland.

[1] = tested on: Listeria monocytogenes 8812049; assay: Peptidase detection on Columbia medium (Example 5); details: 75 mg/l, 48 h 37° C.
Method: as §1, §2

[2] = tested on: Citrobacter freundii 0006197; assay: Peptidase detection on Columbia medium (Example 5); details: 75 mg/l, 48 h 37° C.
Method: as §1, §2

Candida albicans 0801025 = assay: Peptidase detection on Columbia medium (Example 5); details: 75 mg/l, 48 h 37° C.
Method: as §1, §2

[3] = tested on: Staphylococcus aureus 7811049; assay: Peptidase detection on Columbia medium (Example 5); details: 75 mg/l, 48 h 37° C.
Method: as §1, §2

Escherichia coli 0002005 = assay: Peptidase detection on Columbia medium (Example 5); details: 75 mg/l, 48 h 37° C.
Method: as §1, §2

[4] = tested on: Yersinia enterocolitica 7605019; assay: Peptidase detection on Columbia medium (Example 5); details: 75 mg/l, 48 h 37° C.
Method: as §1, §2

[5] = tested on: Klebsiella pneumoniae 0008009; assay: Peptidase detection on Columbia medium (Example 5); details: 75 mg/l, 48 h 37° C.
Method: as §1, §2

[6] = tested on: Morganella morganii 9207053; assay: Peptidase detection on Columbia medium (Example 5); details: 75 mg/l, 48 h 37° C.
Method: as §1, §2

[7] = tested on: Bacillus subtilis 0204038; assay: Peptidase detection on Columbia medium (Example 5); details: 75 mg/l, 48 h 37° C.
Method: as §1, §2

[8] = tested on: Providencia rettgeri 0706064; assay: Peptidase detection on Columbia medium (Example 5); details: 75 mg/l, 48 h 37° C.
Method: as §1, §2

[9] = tested on: Staphylococcus epidermidis 0203050; assay: Peptidase detection on Columbia medium (Example 5); details: 75 mg/l, 48 h 37° C.
Method: as §1, §2

[10] = tested on: Enterococcus faecalis 0008192; assay: Peptidase detection on Columbia medium (Example 5); details: 75 mg/l, 48 h 37° C.
Method: as §1, §2

[11] = tested on: Acinetobacter baumannii 0604029; assay: Peptidase detection on Columbia medium (Example 5); details: 75 mg/l, 48 h 37° C.
Method: as §1, §2

[12] = tested on: Streptococcus pyogenes 9806380; assay: Peptidase detection on Columbia medium (Example 5); details: 75 mg/l, 48 h 37° C.
Method: as §1, §2

[13] = tested on: Serratia marcescens 7303004; assay: Peptidase detection on Columbia medium (Example 5); details: 75 mg/l, 48 h 37° C.
Method: as §1, §2

[14] = tested on: Salmonella ser. Typhimurium 0801029; assay: Peptidase detection on Columbia medium (Example 5); details: 75 mg/l, 48 h 37° C.
Method: as §1, §2

[15] = tested on: Burkholderia cepacia 7507032; assay: Peptidase detection on Columbia medium (Example 5); details: 75 mg/l, 48 h 37° C.
Method: as §1, §2

[16] = tested on: Enterococcus faecium 0610021; assay: Peptidase detection on Columbia medium (Example 5); details: 75 mg/l, 48 h 37° C.
Method: as §1, §2

MRSA 0303033 = assay: Peptidase detection on Columbia medium (Example 5); details: 75 mg/l, 48 h 37° C.
Method: as §1, §2

[17] = tested on: Pseudomonas aeruginosa 0001001; assay: Peptidase detection on Columbia medium (Example 5); details: 75 mg/l, 48 h 37° C.
Method: as §1, §2

[18] = tested on: Enterobacter cloacae 0604040; assay: Peptidase detection on Columbia medium (Example 5); details: 75 mg/l, 48 h 37° C.
Method: as §1, §2

[19] = tested on: Listeria monocytogenes NCTC 11 994; assay: Peptidase detection on Columbia medium (Example 2); set-up: key to Growth: NG: No growth; 0.5: weak growth; 1: moderate growth; 2: good growth; key to Fluo. / Color / Color post-acid.: —: no color; details: 40 mg in 400 ml Columbia; 24 h 37° C.
Method: (§3) The 6 media were distributed into Petri dishes 90 mm in diameter, in a proportion of 20 ml per dish.
(§4) Seventeen strains of microorganisms stemming from collections and belonging to various species of bacteria and yeasts are inoculated in spots of approximately 10 000 colony-forming units.
(§5) The media are incubated for 24 hours at 37° C., and then the colonies formed are examined visually, with or without the addition of acid and under a UV lamp at 365 nm.

[20] = tested on: Enterococcus faecalis NCTC 775; assay: Peptidase detection on Columbia medium (Example 2); set-up: key to Growth: NG: No growth; 0.5: weak growth; 1: moderate growth; 2: good growth; details: 40 mg in 400 ml Columbia; 24 h 37° C.
[21] = tested on: Enterobacter cloacae NCTC 11 936; assay: Peptidase detection on Columbia medium (Example 2); set-up: key to Growth: NG: No growth; 0.5: weak growth; 1: moderate growth; 2: good growth; details: 40 mg in 400 ml Columbia; 24 h 37° C.
Method: as §3, §4, §5

[22] = tested on: Staphylococcus aureus NCTC 6 571; assay: Peptidase detection on Columbia medium (Example 2); set-up: key to Growth: NG: No growth; 0.5: weak growth; 1: moderate growth; 2: good growth; key to Fluo. / Color / Color post-acid.: —: no color; details: 40 mg in 400 ml Columbia; 24 h 37° C.
Method: as §3, §4, §5

[23] = tested on: Providencia rettgeri NCTC 7 475; assay: Peptidase detection on Columbia medium (Example 2); set-up: key to Growth: NG: No growth; 0.5: weak growth; 1: moderate growth; 2: good growth; details: 40 mg in 400 ml Columbia; 24 h 37° C.
Method: as §3, §4, §5

[24] = tested on: Forty-four strains of microorganisms; assay: pH variation detection on modified chromID Coli medium (Example 6), all strains; details: 50 mg/l; 24 h 37° C.; conclusion of Example 6
Method: The media were incubated for 24 hours at 37° C., then the spots formed were examined visually.

Color [1]: orange
Coloration strength [1]: ++
Growth ([1]; control C: +): +
Color [2]: orange
Coloration strength [2]: ++
Growth ([2]; control C: ++): ++
Color [5]: orange
Coloration strength [5]: ++
Growth ([5]; control C: ++): ++
Color [6]: orange
Coloration strength [6]: ++
Growth ([6]; control C: ++): ++
Color [7]: orange
Coloration strength [7]: +
Growth ([7]; control C: ++): ++
Color [10]: orange
Coloration strength [10]: +
Growth ([10]; control C: +): +
Color [11]: orange
Coloration strength [11]: ++
Growth ([11]; control C: ++): ++
Color [12]: orange
Coloration strength [12]: +
Growth ([12]; control C: +): +
Color [13]: orange
Coloration strength [13]: ++
Growth ([13]; control C: ++): ++
Color [14]: −
Coloration strength [14]: −
Growth ([14]; control C: ++): ++
Color [15]: −
Coloration strength [15]: −
Growth ([15]; control C: ++): ++
Color [16]: −
Coloration strength [16]: −
Growth ([16]; control C: +): +
Color (MRSA 0303033): orange
Coloration strength (MRSA 0303033): ++
Growth (MRSA 0303033; control C: ++): ++
Color [17]: orange
Coloration strength [17]: ++
Growth ([17]; control C: ++): ++
Color [18]: orange
Coloration strength [18]: +
Growth ([18]; control C: ++): ++
SMILES: C[C@H](N)C(=O)Nc1ccc(C=Cc2cc[n+](C)c3ccccc23)cc1.Cl.[Cl-] [L-alanyl-4-(4′-amidostyryl)-N-methylquinolinium (dichloride)]
Color (Candida glabrata 0408083): −
Coloration strength (Candida glabrata 0408083): −
Growth (Candida glabrata 0408083; control C: +): +
Color (Candida albicans 0801025): −
Coloration strength (Candida albicans 0801025): −
Growth (Candida albicans 0801025; control C: ++): ++
Color [3]: orange
Coloration strength [3]: +
Growth ([3]; control C: ++): ++
Color (Escherichia coli 0002005): orange
Coloration strength (Escherichia coli 0002005): ++
Growth (Escherichia coli 0002005; control C: ++): ++
Color [4]: orange
Coloration strength [4]: ++
Growth ([4]; control C: +): +
Color [8]: orange
Coloration strength [8]: ++
Growth ([8]; control C: ++): ++
Color [9]: orange
Coloration strength [9]: +
Growth ([9]; control C: ++): ++

Color [19]: —
Growth [19]: 2
Growth [20]: 2
Color [21]: Orange
Growth [21]: 2
SMILES: C[C@H](N)C(=O)N[C@@H](C)C(=O)N[C@@H](C)C(=O)Nc1ccc(C=Cc2cc[n+](C)c3ccccc23)cc1.Cl.[Cl-] [Tri-Ala-ASQM^+, L-alanyl-L-alanyl-L-alanyl-4-(4′-amidostyryl)-N-methylquinolinium (dichloride)]
Color [22]: —
Growth [22]: 2
Growth [23]: 2

SMILES: Nc1ccc(C=Cc2ccnc3ccccc23)cc1
toxicity [24]: does not exhibit any particular toxicity
